For five compounds, inhibition, viability and IC50 results are on record in article PMC7170901, “Design and efficient synthesis of pyrazoline and isoxazole bridged indole C-glycoside hybrids as potential anticancer agents” (Scientific Reports, 2020).

SMILES strings stand for the structures.

The target of one test is T1, COX-2 enzyme (Homo sapiens, UniProt P35354).
T1 construct: purchased Bio Vision (BioVision), USA K547 / k547–100
T1 sequence (P35354 18-604): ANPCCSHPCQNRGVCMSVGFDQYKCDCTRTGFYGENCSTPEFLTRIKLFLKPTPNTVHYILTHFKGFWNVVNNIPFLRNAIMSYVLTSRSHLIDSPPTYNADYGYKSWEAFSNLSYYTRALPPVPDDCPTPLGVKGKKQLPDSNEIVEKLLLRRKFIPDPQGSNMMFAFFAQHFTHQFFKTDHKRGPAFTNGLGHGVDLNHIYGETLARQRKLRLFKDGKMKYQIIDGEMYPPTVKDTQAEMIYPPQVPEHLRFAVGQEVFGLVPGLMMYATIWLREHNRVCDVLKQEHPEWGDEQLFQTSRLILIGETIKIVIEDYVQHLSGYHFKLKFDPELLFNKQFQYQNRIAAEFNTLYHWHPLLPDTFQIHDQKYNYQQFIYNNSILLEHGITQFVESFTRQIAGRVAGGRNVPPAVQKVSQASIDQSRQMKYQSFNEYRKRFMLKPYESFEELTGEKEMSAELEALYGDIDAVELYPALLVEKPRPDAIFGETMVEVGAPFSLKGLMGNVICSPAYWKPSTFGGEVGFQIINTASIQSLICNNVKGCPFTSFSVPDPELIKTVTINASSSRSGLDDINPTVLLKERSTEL
In words: Fluorescence-based COX-2 inhibitor screening assay. The format is biochemical. The procedure: In this method we detect the fluorescence compound PGG2 which can easily be analysed with an excitation wavelength of 540 nm and emission wavelength of 590 nm. The result of COX-2 inhibitory activity has been summarised in Table 5 at two different concentrations.
Assay for cyclooxygenases (COXs) inhibition for COX-2 activity was determined by a fluorescence-based method using a COX-2 inhibitor screening assay kit (Bio vision, catalog # k547–100, S. millipitas Blvd, USA) in a total volume of 100 μL according to the directions provided with the kit manufacturer. The inhibitory activities of the tested compounds were based on the fluorometric detection of Prostaglandin G2 the intermediate product generated by the COX enzyme. The enzymes were preincubated for 5 min at 25 °C with the test compounds prior to addition of arachidonic acid. Celecoxib was used as positive control. Fluorescence was measured (Ex/Em = 540/590 nm) kinetically at 25 °C for 5–10 minutes. Two time point was chosen in the linear range of the plot and obtained the corresponding values (RFU1 and RFU2) The COX-2 inhibitory activity was calculated according to the equation. % Relative inhibition = Slope of EC − Slope of S/Slope of EC × 100. Where EC is the enzyme control and S is sample screen and slope of all the sample is calculated by dividing the net ΔRFU(RFU2 − RFU1) values by the ΔT (T2 − T1).

The test system of test [1] is MDA-MB-231 (human breast cancer) cell line. Kind of test: MTT cell viability assay in MDA-MB-231 cells. The format is cell-based. The settings on record: Homo sapiens; for viability at 10 µM / viability at 25 µM / viability at 50 µM: MDA-MB-231, 72 h, 72 h, MTT, read-out: Cell Viability (%) ± SD; for viability at 10 µM: MDA-MB-231, 10 µM; for viability at 25 µM: MDA-MB-231, 25 µM; for viability at 50 µM: MDA-MB-231, 50 µM; for IC50: MDA-MB-231, MTT, treated for 48 h, 1, 5, 10, 25 and 50 µM. For orientation: Formazan colour is commonly taken as a measure of viable cells.

Test [2] relates to MCF-7 breast cancer cells. Kind of test: MTT cell viability assay in MCF-7 cells. It is filed as cell-based. The settings on record: Homo sapiens, MCF7; for viability at 1 µM: MCF-7, 1 µM; for viability at 1 µM / viability at 10 µM / viability at 25 µM: read-out: Cell Viability (%) ± SD; for viability at 10 µM: MCF-7, 10 µM; for viability at 25 µM: MCF-7, 25 µM; for IC50: MCF-7, MTT, five concentrations (1.0, 5.0, 10.0, 25 and 50 µM).

The next test has as its system MDA-MB-453 cells. In words: MTT cell viability assay in MDA-MB-453 cells. The format is cell-based. To be noted: Homo sapiens, read-out: Cell Viability (%) ± SD; for viability at 1 µM: MDA-MB-453, 1 µM; for viability at 10 µM: MDA-MB-453, 10 µM; for viability at 25 µM: MDA-MB-453, 25 µM. The text has this: MDA-MB-231 represents a specific subtype, known as the triple negative breast cancer (TNBC). […] We also included normal mammary epithelial MCF-10A cells in our experiments to confirm if the growth-inhibitory activities of the selected compounds are truly cancer cell-specific. […] Furthermore, none of these compounds did have any growth inhibitory activity against normal breast epithelial cell (MCF-10A). The IC50 values for these compounds against MDA-MB-231 cells (Fig. 2) are also included in Table 4 for comparison. Cell viability assay was performed as per standard protocols. After 72 h of cell incubation in the presence or absence of each compound, cell viability was evaluated by using MTT ((3-(4,5-dimethylthiazol-2-yl)-2,5-diphenyltetrazolium bromide)) (Himedia Pvt. Ltd, India). In brief, this is a homogeneous, colorimetric method for determining the number of viable cells in proliferation, cytotoxicity or chemosensitivity assays. MTT is bio reduced by cells into a formazan product that is […]. After 72 h of compound treatment, the medium was removed and 100 μL of MTT (0.5 mg ml^−1 in media) was added to the cells and kept in the dark for 3 h at 37 °C in the CO2 incubator and the formazan formed was dissolved in 100 μL DMSO (Dimethyl Sulfoxide). The absorbance of the formazan product at 595 nm was measured directly from 96-well assay plates without additional processing using a multimode plate reader (Bio-Rad) (iMark, India), as absorbance is directly proportional to the number of viable cells in culture. The percentage of viable cells in each group is determined with respect to the untreated control cells.

On COX-2 enzyme, `O=C(/C=C/c1c[nH]c2ccccc12)C[C@@H]1O[C@H](CO)[C@@H](O)[C@H](O)[C@H]1O` [Compound 9, (E)-4-(1H-indol-3-yl)-1-((2S,3R,4R,5S,6R)-3,4,5-trihydroxy-6-(hydroxymethyl)tetrahydro-2H-pyran-2-yl)but-3-en-2-one] came in with an inhibition at 25 µM of 25% and an inhibition at 50 µM of 71%. Further, in test [1], the viability at 10 µM is 71.1 ± 10.5%; the viability at 25 µM worked out at 54 ± 11.2%; the viability at 50 µM turned out to be 36.3 ± 4.29%; the midpoint of inhibition, the IC50, lay at 30.6 µM. Moreover, in test [2], the viability at 1 µM came to 79.7 ± 1.18%, the viability at 10 µM was 62.3 ± 3.6%, the viability at 25 µM amounted to 53.7 ± 4% and the IC50 stood at 30 µM. Besides, in the test on MDA-MB-453 cells, the viability at 1 µM was 80.6 ± 8%, the viability at 10 µM is 76.4 ± 5.4% and the viability at 25 µM was determined as 96.1 ± 35.7%.
At COX-2 enzyme, `O=C(/C=C/c1c[nH]c2ccc(Cl)cc12)C[C@@H]1O[C@H](CO)[C@@H](O)[C@H](O)[C@@H]1O` [Compound 20, (E)-4-(5-chloro-1H-indol-3-yl)-1-((2S,3S,4R,5S,6R)-3,4,5-trihydroxy-6-(hydroxymethyl)tetrahydro-2H-pyran-2-yl)but-3-en-2-one] registered an inhibition at 25 µM of 13.7% and an inhibition at 50 µM of 39%. For the same compound, in test [1], the viability at 10 µM came out at 56.7 ± 23.2%, the viability at 25 µM amounted to 54.3 ± 16.3% and the viability at 50 µM was found to be 62 ± 4.91%. In test [2], the viability at 1 µM is 79.2 ± 2.6%, the viability at 10 µM is 58.7 ± 2.4%, the viability at 25 µM was 47.3 ± 7.6% and inhibition was half-maximal at 21 µM (IC50). Moreover, in the test with MDA-MB-453 cells, the viability at 1 µM came to 105 ± 8.1%, the viability at 10 µM stood at 74.8 ± 1.5% and the viability at 25 µM is 66.4 ± 3.2%.
In the case of `OC[C@H]1O[C@@H](CC2=NNC(c3c[nH]c4ccccc34)C2)[C@H](O)[C@@H](O)[C@H]1O` (stereo partly shown) [Compound 25, (2 S,3 R,4 R,5 R,6 R)-2-((5-(1H-indol-3-yl)-4,5-dihydro-1H-pyrazol-3-yl)methyl)-6-(hydroxy-methyl)tetrahydro-2H-pyran-3,4,5-triol], on COX-2 enzyme, the inhibition at 25 µM was 6.7% and the inhibition at 50 µM was found to be 27%. Further, in test [1], the viability at 10 µM is 97.6 ± 3.36%, the viability at 25 µM is 54.2 ± 7.06%, the viability at 50 µM worked out at 43.8 ± 13% and the 50% inhibitory concentration (IC50) came to 35.5 µM. For the same compound, in test [2], the viability at 1 µM is 66 ± 4.7%, the viability at 10 µM is 34 ± 2.5%, the viability at 25 µM came out at 19.9 ± 2.9% and the IC50 stood at 4.67 µM. Moreover, in the test on MDA-MB-453 cells, the viability at 1 µM worked out at 88.8 ± 5.2%, the viability at 10 µM came to 78.3 ± 4.7% and the viability at 25 µM was 69.6 ± 5.3%.
At COX-2 enzyme, `O=[N+]([O-])c1ccc2[nH]cc(-c3cc(C[C@@H]4O[C@H](CO)[C@@H](O)[C@H](O)[C@H]4O)no3)c2c1` [Compound 34, (2 R,3 S,4 R,5 R,6 S)-2-(hydroxymethyl)-6-((5-(5-nitro-1H-indol-3-yl)isoxazol-3-yl)methyl) tetrahydro-2H-pyran-3,4,5-triol] came in with an inhibition at 25 µM of 4.9% and an inhibition at 50 µM of 59%. Also, in test [1], the viability at 10 µM was found to be 68.4 ± 5.36%, the viability at 25 µM worked out at 46.1 ± 3.32%, the viability at 50 µM was found to be 43.4 ± 0.26% and inhibition was half-maximal at 22.3 µM (IC50). In addition, in test [2], the viability at 1 µM worked out at 41.3 ± 3.1%, the viability at 10 µM stood at 28.4 ± 0.9%, the viability at 25 µM was 23.1 ± 4.4% and 0.71 µM corresponded to half-maximal inhibition (IC50). In the test on MDA-MB-453 cells, the viability at 1 µM stood at 92.5 ± 4.6%, the viability at 10 µM is 80.9 ± 1.2% and the viability at 25 µM is 66.8 ± 1.7%.
For `OC[C@H]1O[C@@H](Cc2cc(-c3c[nH]c4ccccc34)on2)[C@H](O)[C@@H](O)[C@H]1O` [Compound 37, (2 S,3 R,4 R,5 R,6 R)-2-((5-(1H-indol-3-yl)isoxazol-3-yl)methyl)-6-(hydroxymethyl) tetrahydro-2H-pyran-3,4,5-triol], the inhibition at 50 µM on COX-2 enzyme was determined as 95%. Besides, in test [1], the viability at 10 µM was determined as 74.8 ± 10.7%, the viability at 25 µM worked out at 76.4 ± 10.4% and the viability at 50 µM stood at 64.4 ± 7.77%. Further, in test [2], the viability at 1 µM is 30.8 ± 4.2%, the viability at 10 µM stood at 21.2 ± 3.8% and the viability at 25 µM amounted to 19.1 ± 3.5%. Also, in the test with MDA-MB-453 cells, the viability at 1 µM was 95.4 ± 4.8%, the viability at 10 µM came to 76.4 ± 5.4% and the viability at 25 µM stood at 96.1 ± 35.7%.

By inhibition is commonly meant the relative decrease from the control value, in per cent. Lower therefore signals a response near the control. By viability is commonly meant a read-out of living cells in per cent, often relative to untreated cells. The term IC50 denotes the midpoint of a concentration-inhibition curve. The low end stands for inhibition by little substance, the high end for a need for much substance.
